Experimental data reported in the NIST ThermoML archive (doi:10.1016/j.fluid.2010.10.028).
± gives the expanded uncertainty stated by the source.

Test: xn = mol fraction of the nth substance listed
Settings: Liquid, Vibrating tube method

CC(C)=O [acetone] + CCCCCCC
mass density (397.26 K, 104690 kPa, x1 = 0.8992): 764.67 ± 1.6 kg/m3 | mass density (397.26 K, 109670 kPa, x1 = 0.4): 767.98 ± 1.6 kg/m3 | mass density (397.26 K, 109670 kPa, x1 = 0.8992): 767.98 ± 1.6 kg/m3 | mass density (397.26 K, 114610 kPa, x1 = 0.4): 771.16 ± 1.6 kg/m3 | mass density (397.26 K, 114610 kPa, x1 = 0.8992): 771.16 ± 1.6 kg/m3 | mass density (397.26 K, 119600 kPa, x1 = 0.4): 774.27 ± 1.6 kg/m3 | mass density (397.26 K, 119600 kPa, x1 = 0.8992): 774.27 ± 1.6 kg/m3 | mass density (397.27 K, 1520 kPa, x1 = 0.611): 608 ± 1.2 kg/m3 | mass density (397.27 K, 4850 kPa, x1 = 0.801): 635.17 ± 1.2 kg/m3 | mass density (397.27 K, 4860 kPa, x1 = 0.611): 616.98 ± 1.2 kg/m3 | mass density (397.27 K, 9850 kPa, x1 = 0.801): 646.73 ± 1.2 kg/m3 | mass density (397.27 K, 9870 kPa, x1 = 0.611): 628.41 ± 1.2 kg/m3 | mass density (397.27 K, 10000 kPa, x1 = 0.4): 660.81 ± 1.2 kg/m3 | mass density (397.27 K, 10000 kPa, x1 = 0.8992): 660.81 ± 1.2 kg/m3 | mass density (397.27 K, 14860 kPa, x1 = 0.801): 656.72 ± 1.2 kg/m3 | mass density (397.27 K, 19840 kPa, x1 = 0.801): 665.54 ± 1.3 kg/m3 | mass density (397.27 K, 19860 kPa, x1 = 0.611): 646.79 ± 1.3 kg/m3 | mass density (397.27 K, 24850 kPa, x1 = 0.611): 654.54 ± 1.3 kg/m3 | mass density (397.27 K, 24870 kPa, x1 = 0.801): 673.51 ± 1.3 kg/m3 | mass density (397.27 K, 24950 kPa, x1 = 0.4): 687.4 ± 1.3 kg/m3 | mass density (397.27 K, 24950 kPa, x1 = 0.8992): 687.4 ± 1.3 kg/m3 | mass density (397.27 K, 29850 kPa, x1 = 0.611): 661.6 ± 1.3 kg/m3 | mass density (397.27 K, 34860 kPa, x1 = 0.801): 687.43 ± 1.3 kg/m3 | mass density (397.27 K, 34870 kPa, x1 = 0.611): 668.12 ± 1.3 kg/m3 | mass density (397.27 K, 34940 kPa, x1 = 0.4): 701.35 ± 1.3 kg/m3 | mass density (397.27 K, 34940 kPa, x1 = 0.8992): 701.35 ± 1.3 kg/m3 | mass density (397.27 K, 39870 kPa, x1 = 0.611): 674.11 ± 1.4 kg/m3 | mass density (397.27 K, 39930 kPa, x1 = 0.4): 707.57 ± 1.3 kg/m3 | mass density (397.27 K, 39930 kPa, x1 = 0.8992): 707.57 ± 1.3 kg/m3 | mass density (397.27 K, 44850 kPa, x1 = 0.801): 699.35 ± 1.4 kg/m3 | mass density (397.27 K, 44870 kPa, x1 = 0.611): 679.73 ± 1.4 kg/m3 | mass density (397.27 K, 49850 kPa, x1 = 0.611): 684.97 ± 1.4 kg/m3 | mass density (397.27 K, 49850 kPa, x1 = 0.801): 704.77 ± 1.4 kg/m3 | mass density (397.27 K, 54850 kPa, x1 = 0.611): 689.91 ± 1.4 kg/m3 | mass density (397.27 K, 54860 kPa, x1 = 0.801): 709.87 ± 1.4 kg/m3 | mass density (397.27 K, 59840 kPa, x1 = 0.611): 694.59 ± 1.4 kg/m3 | mass density (397.27 K, 64820 kPa, x1 = 0.801): 719.28 ± 1.4 kg/m3 | mass density (397.27 K, 64860 kPa, x1 = 0.4): 733.56 ± 1.4 kg/m3 | mass density (397.27 K, 64860 kPa, x1 = 0.8992): 733.56 ± 1.4 kg/m3 | mass density (397.27 K, 69920 kPa, x1 = 0.611): 703.34 ± 1.5 kg/m3 | mass density (397.27 K, 69920 kPa, x1 = 0.801): 723.77 ± 1.4 kg/m3 | mass density (397.27 K, 79800 kPa, x1 = 0.4): 746.33 ± 1.5 kg/m3 | mass density (397.27 K, 79800 kPa, x1 = 0.8992): 746.33 ± 1.5 kg/m3 | mass density (397.27 K, 79900 kPa, x1 = 0.801): 731.97 ± 1.5 kg/m3 | mass density (397.27 K, 79910 kPa, x1 = 0.611): 711.27 ± 1.5 kg/m3 | mass density (397.27 K, 84880 kPa, x1 = 0.611): 715 ± 1.6 kg/m3 | mass density (397.27 K, 84880 kPa, x1 = 0.801): 735.83 ± 1.5 kg/m3 | mass density (397.27 K, 89870 kPa, x1 = 0.611): 718.57 ± 1.6 kg/m3 | mass density (397.27 K, 89870 kPa, x1 = 0.801): 739.53 ± 1.5 kg/m3 | mass density (397.27 K, 94750 kPa, x1 = 0.4): 757.72 ± 1.5 kg/m3 | mass density (397.27 K, 94750 kPa, x1 = 0.8992): 757.72 ± 1.5 kg/m3 | mass density (397.27 K, 94840 kPa, x1 = 0.801): 743.11 ± 1.6 kg/m3 | mass density (397.27 K, 94850 kPa, x1 = 0.611): 722.01 ± 1.6 kg/m3 | mass density (397.27 K, 99720 kPa, x1 = 0.4): 761.24 ± 1.6 kg/m3 | mass density (397.27 K, 99720 kPa, x1 = 0.8992): 761.24 ± 1.5 kg/m3 | mass density (397.27 K, 99830 kPa, x1 = 0.611): 725.33 ± 1.6 kg/m3 | mass density (397.27 K, 104800 kPa, x1 = 0.611): 728.56 ± 1.6 kg/m3 | mass density (397.27 K, 104800 kPa, x1 = 0.801): 749.91 ± 1.6 kg/m3 | mass density (397.27 K, 109770 kPa, x1 = 0.611): 731.66 ± 1.7 kg/m3 | mass density (397.27 K, 119830 kPa, x1 = 0.801): 759.4 ± 1.7 kg/m3 | mass density (397.27 K, 124560 kPa, x1 = 0.4): 777.29 ± 1.6 kg/m3 | mass density (397.27 K, 124560 kPa, x1 = 0.8992): 777.29 ± 1.6 kg/m3 | mass density (397.27 K, 129820 kPa, x1 = 0.4): 780.45 ± 1.7 kg/m3 | mass density (397.27 K, 129820 kPa, x1 = 0.8992): 780.45 ± 1.6 kg/m3 | mass density (397.27 K, 129840 kPa, x1 = 0.801): 765.29 ± 1.7 kg/m3 | mass density (397.28 K, 1470 kPa, x1 = 0.7024): 615.75 ± 1.2 kg/m3 | mass density (397.28 K, 1500 kPa, x1 = 0.492): 600.98 ± 1.2 kg/m3 | mass density (397.28 K, 4850 kPa, x1 = 0.7024): 624.89 ± 1.2 kg/m3 | mass density (397.28 K, 4860 kPa, x1 = 0.492): 609.77 ± 1.2 kg/m3 | mass density (397.28 K, 9830 kPa, x1 = 0.7024): 636.41 ± 1.2 kg/m3 | mass density (397.28 K, 9850 kPa, x1 = 0.492): 620.92 ± 1.2 kg/m3 | mass density (397.28 K, 14840 kPa, x1 = 0.7024): 646.37 ± 1.2 kg/m3 | mass density (397.28 K, 14860 kPa, x1 = 0.492): 630.52 ± 1.2 kg/m3 | mass density (397.28 K, 19840 kPa, x1 = 0.7024): 655.11 ± 1.3 kg/m3 | mass density (397.28 K, 24820 kPa, x1 = 0.7024): 662.95 ± 1.3 kg/m3 | mass density (397.28 K, 29820 kPa, x1 = 0.7024): 670.12 ± 1.3 kg/m3 | mass density (397.28 K, 29840 kPa, x1 = 0.492): 653.43 ± 1.3 kg/m3 | mass density (397.28 K, 29860 kPa, x1 = 0.801): 680.72 ± 1.3 kg/m3 | mass density (397.28 K, 34830 kPa, x1 = 0.7024): 676.7 ± 1.3 kg/m3 | mass density (397.28 K, 34860 kPa, x1 = 0.492): 659.77 ± 1.3 kg/m3 | mass density (397.28 K, 39840 kPa, x1 = 0.7024): 682.81 ± 1.3 kg/m3 | mass density (397.28 K, 39850 kPa, x1 = 0.801): 693.57 ± 1.3 kg/m3 | mass density (397.28 K, 44820 kPa, x1 = 0.7024): 688.48 ± 1.4 kg/m3 | mass density (397.28 K, 44860 kPa, x1 = 0.492): 671.15 ± 1.4 kg/m3 | mass density (397.28 K, 49810 kPa, x1 = 0.7024): 693.79 ± 1.4 kg/m3 | mass density (397.28 K, 54840 kPa, x1 = 0.492): 681.14 ± 1.4 kg/m3 | mass density (397.28 K, 54910 kPa, x1 = 0.7024): 698.93 ± 1.4 kg/m3 | mass density (397.28 K, 59840 kPa, x1 = 0.492): 685.74 ± 1.4 kg/m3 | mass density (397.28 K, 59850 kPa, x1 = 0.801): 714.7 ± 1.4 kg/m3 | mass density (397.28 K, 59860 kPa, x1 = 0.7024): 703.65 ± 1.4 kg/m3 | mass density (397.28 K, 64820 kPa, x1 = 0.492): 690.08 ± 1.5 kg/m3
